Like-named read-outs stand apart in the source and are kept apart here.
Columns and labels:
[1] = target: PfCDPK1 (Plasmodium falciparum, UniProt P62344); experiment: PfCDPK1 enzyme inhibition (Kinase-Glo ATP depletion); type: biochemical; settings: for IC50: isolated recombinant enzyme
Experimental: [10] A high throughput screen of 35,422 compounds comprising a diverse set of small molecules from a variety of commercial suppliers and 8100 kinase-focused compounds (BioFocus) was performed using Kinase-Glo® (Promega) to measure ATP depletion resulting from the kinase reaction. Full length recombinant PfCDPK1 was incubated with MyoA-Tail domain Interacting Protein (MTIP) substrate and the amount of ATP remaining after 1 h was measured by luminescence using a Pherastar plate reader (BMG Labtech).

[2] = tested on: P. falciparum parasite; experiment: In vitro P. falciparum parasite growth (FACS, hydroethidine); type: cell-based, Plasmodium falciparum; settings: for EC50 / inhibition at 1 µM: Plasmodium falciparum; for inhibition at 1 µM: at 1 μM inhibitor concentration
Experimental: [15] P. falciparum EC50 values were measured using an in vitro model of malaria parasite growth. Compounds were diluted into 2% DMSO and added to parasites 24 h post-invasion in a 96-well plate and incubated under static conditions. Cells were recovered 48 h later and processed for FACS analysis using hydroethidine to stain parasite DNA. Data was acquired using CellQuest Pro software on a FACSCalibur (Becton Dickinson). Growth inhibition was calculated using the following formula: % growth inhibition = (1 − [parasitaemia of culture/parasitaemia of control culture]) ×100.

[3] = Mouse liver microsome stability (MLM); type: in vitro ADME; settings: % remaining at 30 min, mouse microsomes
[4] = tested on: P. berghei; experiment: 4-Day Peters test in P. berghei mouse model; type: in vivo; settings: oral once daily 50 mg/kg, 4 days, relative to vehicle
Experimental: In advance of in vivo testing, it was shown that the inhibitors retained potency against the isolated P. berghei CDPK1 enzyme.[16] Compounds were dosed with an oral, once daily 50 mg/kg regime over 4 days in the standard Peters test, and their in vitro ADME and in vivo efficacy data is shown in Table 6.

[5] = PAMPA permeability; type: in vitro ADME
[6] = Measured log D; type: physicochemical
Source text: Table 6 In vitro ADME and in vivo efficacy data for selected compounds | column: 17; 24; 27; 28

[7] = tested on: 73-member human kinase panel; experiment: Kinase selectivity against 73-member human kinase panel; type: biochemical; settings: 1 μM inhibitor concentration; for Kinases hit in human kinase panel: 73-member panel
Experimental: [17] Kinase selectivity profiling was carried out at the National Centre for Protein Kinase Profiling in the MRC Protein Phosphorylation Unit at the University of Dundee.

[8] = Human liver microsome stability (HLM); type: in vitro ADME; settings: % remaining at 30 min, human microsomes
[9] = Mouse pharmacokinetics; type: in vivo
[10] = in vitro parasite growth, 48 h, read-out: P. falciparum EC50

PfCDPK1, sequence (P62344 whole entry, the tested form may be a part): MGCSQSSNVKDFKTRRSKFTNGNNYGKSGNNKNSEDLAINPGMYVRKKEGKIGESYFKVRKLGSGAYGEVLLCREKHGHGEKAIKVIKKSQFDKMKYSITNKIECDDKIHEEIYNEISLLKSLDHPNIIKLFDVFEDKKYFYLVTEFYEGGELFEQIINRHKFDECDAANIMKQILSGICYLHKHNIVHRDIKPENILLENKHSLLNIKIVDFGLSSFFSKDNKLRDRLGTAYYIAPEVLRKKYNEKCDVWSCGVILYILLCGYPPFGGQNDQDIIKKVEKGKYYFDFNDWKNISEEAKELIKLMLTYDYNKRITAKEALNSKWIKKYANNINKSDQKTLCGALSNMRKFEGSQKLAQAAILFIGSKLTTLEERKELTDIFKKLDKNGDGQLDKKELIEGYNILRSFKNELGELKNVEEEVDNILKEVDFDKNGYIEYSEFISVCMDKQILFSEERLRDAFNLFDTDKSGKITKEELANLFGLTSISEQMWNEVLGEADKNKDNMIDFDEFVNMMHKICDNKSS

Compound	IC50 [1] [nM]	EC50 [2, 10] [nM]	also measured
CN1CCC(Nc2ccc3ncc(-c4cccc(NC(=O)C5CC5)c4)n3n2)CC1 [Compound 7]	22	560	–
COC(=O)Nc1cccc(-c2cnc3ccc(NC4CCN(C)CC4)nn23)c1 [Compound 8]	18	750	–
CN1CCC(Nc2ccc3ncc(-c4ccc(NCC5CC5)nc4)n3n2)CC1 [Compound 19]	36	450	–
NC(=O)c1ccc(-c2cnc3ccc(NCCc4cccnc4)nn23)cc1 [Compound 1]	59	–	inhibition at 1 µM [2]: 99%
COCCNc1ccc(-c2cnc3ccc(NC4CCN(C)CC4)nn23)cn1 [Compound 20]	25	670	–
CC(=O)Nc1cccc(-c2cnc3ccc(N[C@H]4CC[C@H](N)CC4)nn23)c1 [Compound 6]	11	320	–
Fc1cccc(-c2cnc3ccc(NCCc4cccnc4)nn23)c1 [Compound 5]	80	–	inhibition at 1 µM [2]: 6%
N#Cc1ccc(-c2cnc3ccc(NCCc4cccnc4)nn23)cc1 [Compound 4]	71	–	inhibition at 1 µM [2]: 98%
CCCCNc1ccc(-c2cnc3ccc(NC4CCN(C)CC4)nn23)cn1 [Compound 18]	14	430	–
CC(C)CCNC(=O)c1ccc(-c2cnc3ccc(N[C@H]4CC[C@H](N)CC4)nn23)cc1 [Compound 9]	16	460	EC50 against the P. falciparum parasite [2]: sub-micromolar
CC(=O)Nc1cccc(-c2cnc3ccc(NCCc4ccccn4)nn23)c1 [Compound 3]	66	–	inhibition at 1 µM [2]: 35%
CC(C)CCNc1ccc(-c2cnc3ccc(NC4CCN(C)CC4)nn23)cn1 [Compound 17]	–	400	MLM (% rem) [3]: 63 % rem; Reduction in parasitaemia in vivo [4]: 46%; logD [6]: 3.4; Kinases hit in human kinase panel [7]: MKK1, RSK1, PKD1, CHK2, Aurora B, NUAK1, GCK, MLK1, Src, Lck, YES1, and VEGFR; EC50 ([2]; P. falciparum, read-out: Cell potency): < 500 nM; Clearance (in words) [9]: moderate to high clearance; Oral bioavailability in mouse (in words) [9]: good oral bioavailability; i.v. t1/2 [9]: 2 h; Oral %F ([9]; oral): 84%; HLM (% rem) [8]: 85 % rem
CC(C)CCNC(=O)c1ccc(-c2cnc3ccc(NC4CCN(C)CC4)nn23)cc1 [Compound 10]	23	780	EC50 against the P. falciparum parasite [2]: sub-micromolar
NC(=O)c1ccc(-c2cnc3ccc(NCCc4ccccn4)nn23)cc1 [Compound 2]	61	–	inhibition at 1 µM [2]: 99%

Now from value to compound, other results behind:

IC50 [1] [nM]	EC50 [2, 10] [nM]	Compound	also measured
13	140	CC(C)CCNc1ccc(-c2cnc3ccc(N4CCC(N)CC4)nn23)cn1 [Compound 28]	MLM (% rem) [3]: 90 % rem; Reduction in parasitaemia in vivo [4]: 11%; Papp [5]: 5.5 ×10⁻⁶ cm/s; logD [6]: 2.5; Selectivity profile against panel of human kinases [7]: good selectivity profiles; Kinases hit in human kinase panel [7]: RSK1, CAMK1, PHK, NUAK1, and HER4; HLM (% rem) [8]: 90 % rem
88	–	CC(C)CCNc1cc(-c2cnc3ccc(NC4CCN(C)CC4)nn23)ccn1 [Compound 21]	Loss in potency against the enzyme in comparison to 17 ([1]; PfCDPK1): sevenfold loss in potency
16	170	CC(C)CCNc1ncc(-c2cnc3ccc(N[C@H]4CC[C@H](N)CC4)nn23)cn1 [Compound 32]	–
170	540	CC(C)CCOc1ccc(-c2cnc3ccc(N[C@H]4CC[C@H](N)CC4)nn23)cn1 [Compound 30]	–
89	930	CC(C)CCNc1ccc(-c2cnc3ccc(NC4CN(C)C4)nn23)cn1 [Compound 25]	–
15	240	CC(C)CCNc1ccc(-c2cnc3ccc(NC4CCNCC4)nn23)cn1 [Compound 29]	–
44	570	CC(C)CCNc1ccc(-c2cnc3ccc(N4CCC(N(C)C)CC4)nn23)cn1 [Compound 27]	MLM (% rem) [3]: 84 % rem; Reduction in parasitaemia in vivo [4]: 7%; Papp [5]: 13.7 ×10⁻⁶ cm/s; logD [6]: 3.2; HLM (% rem) [8]: 80 % rem
14	470	CC(C)CCNc1ncc(-c2cnc3ccc(NC4CCN(C)CC4)nn23)cn1 [Compound 31]	–
175	2400	CC(C)CCNc1ccc(-c2cnc3ccc(N4CCN(C)CC4)nn23)cn1 [Compound 26]	–
23	170	CC(C)CCNc1ccc(-c2cnc3ccc(NC4CCN(C)C4)nn23)cn1 (stereo not shown) [Compound 24]	MLM (% rem) [3]: 74 % rem; Reduction in parasitaemia in vivo [4]: 30%; Papp [5]: 11.4 ×10⁻⁶ cm/s; logD [6]: 3.5; Selectivity profile against panel of human kinases [7]: good selectivity profiles; Kinases hit in human kinase panel [7]: RSK1 and HER4; HLM (% rem) [8]: 63 % rem
424	–	CC(C)CCNc1nccc(-c2cnc3ccc(NC4CCN(C)CC4)nn23)n1 [Compound 33]	–

From PMC3898741, “Substituted imidazopyridazines are potent and selective inhibitors of Plasmodium falciparum calcium-dependent protein kinase 1 (PfCDPK1)” (Bioorganic & Medicinal Chemistry Letters, 2013)
